Test results: the supplement of paper PMC10307832

Legend:
Experiment in all cases: relative viability (nuclei count vs DMSO), 5 days (fraction); higher = more cells survive
Doramapimod = compound: Cc1ccc(-n2nc(C(C)(C)C)cc2NC(=O)Nc2ccc(OCCN3CCOCC3)c3ccccc23)cc1 [Doramapimod]
How it was run: (§1)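 On vehicle-anchored 1536-well plates, lung cancer cell lines held overnight at 37 °C were pinned with five library-drug doses (not always all listed) spaced by √10. With no medium change over 5 days, they were then fixed, permeabilised and Hoechst-stained in one step and imaged at 4×. MetaXpress counted nuclei, and viability is the median across plates of treated-well over vehicle-well nuclei. Acceptance needed control CV below 25% and at least one doubling.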

IPA-3 = compound: C1=CC=C2C(=C1)C=CC(=C2SSC3=C(C=CC4=CC=CC=C43)O)O [IPA-3]
How it was run: as §1

RAF265 = compound: Cn1c(Nc2ccc(C(F)(F)F)cc2)nc2cc(Oc3ccnc(-c4ncc(C(F)(F)F)[nH]4)c3)ccc21 [RAF265]
How it was run: as §1

IPA-3 + Foretinib = compound: C1=CC=C2C(=C1)C=CC(=C2SSC3=C(C=CC4=CC=CC=C43)O)O [IPA-3] + COc1cc2c(Oc3ccc(NC(=O)C4(C(=O)Nc5ccc(F)cc5)CC4)cc3F)ccnc2cc1OCCCN1CCOCC1 [Foretinib] (partner 0.25 µM)
How it was run: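 Medians of duplicate plates are given as relative viability. That measure is the nuclei count in treated wells divided by the count in vehicle wells. Counts were taken on 4× images of lung cancer cell lines in 1536-well plates, 5 days after pin-tool dosing the day after seeding with one drug alone or a fixed anchor-drug dose plus five library-drug doses (not always all listed) in √10 steps.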

Row | Cell Line | relative viability (Doramapimod; 0.02 µM) | relative viability (Doramapimod; 0.06325 µM) | relative viability (Doramapimod; 0.2 µM) | relative viability (Doramapimod; 0.6325 µM) | relative viability (Doramapimod; 2 µM) | relative viability (IPA-3; 0.2 µM) | relative viability (IPA-3; 0.6325 µM) | relative viability (IPA-3; 2 µM) | relative viability (IPA-3; 6.325 µM) | relative viability (IPA-3; 20 µM) | relative viability (RAF265; 0.01 µM) | relative viability (RAF265; 0.03162 µM) | relative viability (RAF265; 0.1 µM) | relative viability (RAF265; 0.3162 µM) | relative viability (RAF265; 1 µM) | relative viability (IPA-3 + Foretinib; first compound 0.2 µM) | relative viability (IPA-3 + Foretinib; first compound 0.6325 µM) | relative viability (IPA-3 + Foretinib; first compound 2 µM) | relative viability (IPA-3 + Foretinib; first compound 6.325 µM) | relative viability (IPA-3 + Foretinib; first compound 20 µM)
1 | EMC-BAC-2 | 1 | 1.2 | 1.01 | 0.954 | 0.863 | 1.02 | 1.05 | 1 | 1.02 | 1.09 | 0.94 | 0.885 | 0.639 | 0.467 | 0.236 | 1.07 | 1 | 1.07 | 1.01 | 1.22
2 | NCI-H1355 | 1.02 | 0.984 | 0.939 | 1.03 | 0.86 | 1.11 | 0.98 | 0.988 | 0.965 | 0.98 | 1 | 0.943 | 0.895 | 0.72 | 0.441 | 1 | 0.953 | 1.02 | 0.946 | 1.08
3 | NCI-H23 | 0.966 | 1.04 | 1.06 | 0.864 | 0.946 | 1.08 | 0.944 | 0.895 | 0.917 | 0.923 | 0.966 | 0.847 | 0.906 | 0.416 | 0.41 | 1.03 | 1.02 | 0.971 | 1 | 1.17
4 | NCI-H1651 | 0.938 | 0.934 | 1.03 | 1.1 | 0.968 | 1.18 | 0.952 | 1.03 | 1.02 | 1.08 | 1 | 1 | 0.961 | 0.901 | 0.785 | 0.981 | 0.717 | 0.967 | 0.952 | 1.04
5 | NCI-H1975 | 1.03 | 1.04 | 1.08 | 1.05 | 1.04 | 1.06 | 0.924 | 0.957 | 1.1 | 0.993 | 0.932 | 0.956 | 0.602 | 0.442 | 0.406 | 1.01 | 0.887 | 1.03 | 0.873 | 0.935
6 | COR-L23 | 1.01 | 1.08 | 0.981 | 0.964 | 0.949 | 1.15 | 0.912 | 1.11 | 0.923 | 0.982 | 1.19 | 0.92 | 0.879 | 0.74 | 0.626 | 1.12 | 0.964 | 1.04 | 0.928 | 0.906
7 | LOU-NH91 | 1.09 | 0.996 | 1.05 | 1.08 | 0.691 | 0.953 | 0.94 | 1.01 | 1.01 | 1.19 | 1.05 | 0.976 | 0.905 | 0.733 | 0.753 | 0.955 | 0.861 | 0.942 | 0.916 | 1.07
8 | NCI-H441 | 0.999 | 0.845 | 1.08 | 1.06 | 0.859 | 1.37 | 0.951 | 0.896 | 1.04 | 0.915 | 1.01 | 0.928 | 1.08 | 0.78 | 0.753 | 1.14 | 1.2 | 0.79 | 0.837 | 1
9 | NCI-H647 | 1.05 | 1.03 | 1.07 | 0.995 | 0.913 | 1.27 | 0.906 | 0.88 | 0.758 | 0.568 | 0.931 | 0.974 | 0.886 | 0.645 | 0.505 | 1.36 | 1.26 | 1.08 | 1.03 | 1.12
10 | NCI-H1915 | 0.986 | 0.994 | 1.04 | 0.99 | 0.885 | 1.1 | 0.997 | 0.989 | 0.96 | 1.01 | 0.987 | 0.915 | 0.757 | 0.489 | 0.3 | 1.13 | 1.06 | 1.08 | 1.11 | 1.11
11 | NCI-H1299 | 1.04 | 1.02 | 1.02 | 1.05 | 0.967 | 1.1 | 0.995 | 1.02 | 0.94 | 0.98 | 1.08 | 0.97 | 0.961 | 0.793 | 0.616 | 1.1 | 1.07 | 1.17 | 0.678 | 1.06
12 | NCI-H1734 | 0.949 | 0.855 | 0.868 | 1.02 | 0.769 | 1.22 | 1 | 0.972 | 0.992 | 0.908 | 1.05 | 0.832 | 0.87 | 0.738 | 0.521 | 0.972 | 0.803 | 0.845 | 0.92 | 0.934
13 | NCI-H1993 | 1.06 | 0.941 | 0.852 | 1.14 | 0.864 | 0.981 | 0.99 | 0.873 | 0.97 | 1.01 | 1.04 | 0.94 | 1 | 0.799 | 0.794 | 0.833 | 0.654 | 0.813 | 0.776 | 0.728
14 | LK-2 | 0.909 | 0.981 | 0.926 | 0.741 | 0.849 | 1.06 | 1.03 | 0.995 | 1.01 | 1.19 | 0.963 | 1 | 1.09 | 1.07 | 0.714 | 1.25 | 1.31 | 1.3 | 1.63 | 1.5
15 | HCC-78 | 0.962 | 1.07 | 1.06 | 1.14 | 1.02 | 1.04 | 0.907 | 1.04 | 1.04 | 0.994 | 0.947 | 1.12 | 1.15 | 0.927 | 0.878 | 0.555 | 0.611 | 0.606 | 0.668 | 0.655
16 | NCI-H2405 | 1.02 | 1.03 | 0.973 | 1.07 | 0.914 | 1.06 | 0.994 | 1.03 | 1.02 | 1.06 | 1.04 | 0.976 | 1 | 0.871 | 0.597 | 1.12 | 1.07 | 1.07 | 1.07 | 1.06
